Assays:
[1] = log P determination by HPLC on reversed-phase column (C 18), EEC Directive 79/831 Annex V.A8; format: physicochemical; conditions: reversed-phase HPLC column (C 18); pH 2.3; 0.1% aqueous phosphoric acid and acetonitrile; 43° C.
Description: The log P values given in the Tables and Preparation Examples above are determined in accordance with EEC Directive 79/831 Annex V.A8 by HPLC (High Performance Liquid Chromatography) on a reversed-phase column (C 18). Temperature: 43° C. The determination is carried out in the acidic range at pH 2.3 using the mobile phases 0.1% aqueous phosphoric acid and acetonitrile; linear gradient from 10% acetonitrile to 90% acetonitrile. Calibration is carried out using unbranched alkan-2-ones (having 3 to 16 carbon atoms) with known log P values (determination of the log P values by the retention times using linear interpolation between two successive alkanones).

Alternaria solani = assay: Alternaria test (tomato)/protective; format: in vivo; conditions: protective, application rate 1000 ppm, evaluation 7 days after inoculation
Description: (§1) To produce a suitable preparation of active compound, 1 part by weight of active compound is mixed with the stated amounts of solvent and emulsifier and the concentrate is diluted with water to the desired concentration.
To test for protective activity, young tomato plants are sprayed with the active compound preparation at the stated application rate. 1 day after the treatment, the plants are inoculated with a spore suspension of Alternaria solani and then remain at 100% relative atmospheric humidity and 20° C. for 24 h. The plants then remain at 96% relative atmospheric humidity and a temperature of 20° C.
Evaluation is carried out 7 days after the inoculation. 0% means an efficacy which corresponds to that of the control, whereas an efficacy of 100% means that no infection is observed.

Pyrenophora teres = Pyrenophora teres test (barley)/protective; format: in vivo; conditions: protective, application rate 500 ppm, evaluation 8 days after inoculation
Description: as §1
To test for protective activity, young plants are sprayed with the active compound preparation at the stated application rate. After the spray coating has dried on, the plants are sprayed with a conidia suspension of Pyrenophora teres. The plants remain in an incubation cabin at 20° C. and 100% relative atmospheric humidity for 48 hours.
The plants are then placed in a greenhouse at a temperature of about 20° C. and a relative atmospheric humidity of about 80%.
Evaluation is carried out 8 days after the inoculation. 0% means an efficacy which corresponds to that of the control, whereas an efficacy of 100% means that no infection is observed.

Uromyces appendiculatus = assay: Uromyces test (bean)/protective; format: in vivo; conditions: protective, application rate 100 ppm, evaluation 10 days after inoculation
Description: To produce a suitable preparation of active compound, 1 part by weight of active compound is mixed within the stated amounts of solvents and emulsifier and the concentrate is diluted with water to the desired concentration.
To test for protective activity, the young plants are sprayed with the active compound preparation at the stated application rate. After the spray coating has dried on, the plants are inoculated with an aqueous spore suspension of the bean rust pathogen Uromyces appendiculatus and then remain in an incubation cabin at about 20° C. and 100% relative atmospheric humidity for 1 day. The plants are then placed in a greenhouse at about 21° C. and a relative atmospheric humidity of about 90%.
Evaluation is carried out 10 days after the inoculation. 0% means an efficiency which corresponds to that of the control, whereas an efficacy of 100% means that no infection is observed.

SMILES | chromatographic logP [1] | Efficacy in % (Alternaria solani) [%] | Efficacy in % (Pyrenophora teres) [%] | Efficacy in % (Uromyces appendiculatus) [%]
Cc1nn(C)c(F)c1C(=O)N(c1ccc(F)cc1-c1ccc(Cl)c(Cl)c1)C1CC1 [Compound 10] | 3.74 | 89 | 95 | 
Cn1cc(C(=O)N(c2ccccc2-c2ccc(Cl)cc2)C2CC2)c(C(F)F)n1 [Compound 7] | 3.38 | 89 | 95 | 
CC(C)CC(C)c1ccccc1N(C(=O)c1cn(C)nc1C(F)F)C1CC1 (stereo not drawn) [Compound 3, N-cyclopropyl-3-(difluoromethyl)-N-[2-(1,3-dimethylbutyl)phenyl]-1-methyl-1H-pyrazol-4-carboxamide] | 3.89 | 94 |  | 100
Cc1nn(C)c(F)c1C(=O)N(c1ccccc1-c1ccc(Cl)cc1)C1CC1 [Compound 6] | 3.22 |  | 80 | 93
Cc1nn(C)c(F)c1C(=O)N(c1ccccc1C(C)CC(C)C)C1CC1 (stereo not drawn) [Compound 2] | 3.74 | 100 |  | 100
CC(C)CC(C)c1ccccc1NC1CC1 (stereo not drawn) [III-1, N-cyclopropyl-2-(1,3-dimethylbutyl)aniline] | 5.33 |  |  | 
Cn1cc(C(=O)N(c2ccc(F)cc2-c2ccc(Cl)c(Cl)c2)C2CC2)c(C(F)F)n1 [Compound 11] | 3.85 | 94 |  | 

— US7820708B2, “Carboxamides” (Bayer CropScience AG, priority 2005, dated 2010)
